Data from US9566265B2, “Carbazole compounds and therapeutic uses of the compounds” (Incuron, LLC, priority 2008, dated 2017).
pEC50, pIC50: −log10 of the molar value. Where two headings read alike, the source gives them in different places. Each block holds one compound with its values, some of them ahead of it.

What was measured:
[1] = test system: p53; test: p53 activation assay, p53 responsive luciferase reporter cell line; type: cell-based, human; details: for pEC50: HT1080-L or RCC45ConALuc reporter cells, read-out: EC50 value (p53 activation); for p53 activation, active or inactive carbazole: structural analysis, FIGS. 6 and 7
Experimental: The potency of a present carbazole compound is determined by measuring an ability of the compound to inhibit NF-κB activity or to activate p53. […] Theoretically, such assays of the dose-response effect of activator compounds can be described as a sigmoidal curve expressing a degree of activation as a function of concentration. The curve also theoretically passes through a point at which the concentration is sufficient to increase activity to a level that is 50% that of the difference between a baseline and the maximal activity in the assay. […] Determination of an EC50 value is made using conventional biochemical (acellular) assay techniques or cell-based assay techniques.
The potency of a carbazole compound is determined by measuring an ability of the compound to activate p53.
The p53 activation assay for determination of the EC50 value was performed as follows:
HT1080-L (human fibrosarcoma cells with ConALuc reporter)
RCC45ConALuc (human renal cell carcinoma cell line with ConALuc reporter)
1. Two types of standard cells were used, either HT1080-L or RCC45ConALuc cells. Both cell lines stably express a p53 responsive luciferase reporter construct.
2. HT1080-L cells were grown in DMEM medium containing 10% FBS. RCC45ConALuc cells were grown in RPMI medium containing 10% FBS (Pen/Strep can be added to a final concentration of 1%, if desired). Both cell lines were grown in a humidified incubator at 37° C. with 5% CO2. For normal culturing, both cell lines were split using 1× trypsin-EDTA at a ratio of 1:20 for HT1080-L and 1:5 for RCC45ConALuc cells every 3-4 days (when cells are 80-90% confluent).
3. A day before the experiment, the cells are trypsinized for about 5 minutes in 1× tripsin/EDTA solution in 37° C. incubator and plated in 96 well plates. HT1080-L cells were seeded at a density of 1×10^4/well in standard DMEM medium in a volume of 50 μl. RCC45ConALuc were seeded at a density of 2×10^4/well in the volume of 50 uL in standard RPMI medium.
4. The next day, various carbazole compounds were prepared by dilution of stock solutions in standard DMEM medium such that the cells were treated with the final chemical concentrations in Table 1 below. Stock solutions were made up in DMSO. Typically, chemicals were made up as 20 mM stock solutions.
5. Each tested compound used two rows of a 96-well plate, thus four compounds (e.g., W, X, Y, Z) were tested in one plate simultaneously. In addition to test compounds, each plate included positive and negative controls. As positive control, 9aa was used at a dose of 3 μM. As a negative control, DMSO was used in final concentration 0.1%.
1. Dilutions of chemicals added to the plate were made up as 2× concentrations in standard DMEM and added to corresponding well in a volume of 50 μl.
2. Chemicals were diluted in standard DMEM by two time serial dilutions starting from 40 μM (2× of highest concentration, e.g., 20 μM). For one cell line, the minimum volume was 125 μL of 2× working solution of chemical of each concentration in standard DMEM.
4. Sixteen hours following compound addition, all wells with the highest concentrations of compounds are checked microscopically for the presence of toxic effect, because death of cells caused by compounds may not allow detecting luciferase activity. If cytotoxocity is evident, other doses of the same compounds were checked for the presence of toxicity. The lowest dose causing toxic effect was recorded.
5. After microscopic examination, 15 μl of Bright Glo luciferase assay system were added to each well and after 5 min incubation at RT, the plates were read on a 96 well plate luminometer with a measurement time of 0.1 sec. A shaking step was included before measurement.
6. The folds of luciferase activation for each concentration of each chemical were calculated by dividing the detected luciferase activity at each chemical concentration by the average of the luciferase activity for the DMSO control on the same plate.

[2] = test system: HB 101 E. coli; test: antibacterial cytotoxicity assay, gram(−) bacteria (OD600); type: cell-based; details: 48 hours, over a range of potencies, FIG. 13A
[3] = test system: Bacillus subtilis; test: antibacterial cytotoxicity assay, gram(+) bacteria (OD600); type: cell-based; details: B. subtilis, 48 hours, over a range of potencies; FIG. 13B
Experimental: In vitro test to evaluate the effect of carbazole compounds on gram(-) and gram(+) bacteria. Two days prior to the start of the cytotoxicity assay, inoculate DH5-α and B. subtilis into 1 ml of corresponding media from glycerol stocks. Allow to grow during the course of the day at 37° C. with shaking. Streak each bacteria on the appropriate agar plates using a sterile inoculation loop and allow to grow overnight at 37° C. in the bacteria incubator. Using a sterile inoculation loop, pick a single colony of bacteria and inoculate 5 ml of the corresponding media in a 14 ml snap cap tube. Grow overnight ( 16 h) at 37° C. with shaking. […] Dilute 5 ml cultures of DH5-α and B. subtilis to an OD600 nm of 0.002, which corresponds to about 2×10^6 cells/ml in a volume sufficient for the experiment (dependent on the number of plates). Plate out 50 μl into each well of X 96-well plates (X=# plates needed for a given experiment). […] Chemicals for testing are prepared by dilution of stock solutions in LB Broth or Nutrient Broth for DH5-α and B. subtilis studies, respectively. Cells are treated with the final chemical concentrations presented in the scheme below (Table 2). Stock solutions are made up in DMSO. […] However, this concentration is dependent on the solubility of a given chemical and actual stock concentrations must be noted at time of experiment. Each library chemical to be tested requires 2 rows of a 96-well plate, thus 4 chemicals ([…]) can be tested in one plate simultaneously. In addition to test chemicals, each plate should include positive and negative controls. As positive control, ampicillin is used at 100 μg/ml. […] Dilutions of chemicals to be added to the plate are made up as 2× concentrations in appropriate bacteria media and added to corresponding wells in a volume of 50 μl. […] This process is repeated until all 10 2× doses are prepared. […] Following the addition of carbazole compounds to 96-well plates containing bacteria, plates are transferred to the 37° C. bacteria incubator for 48 hours. After the incubation, the OD600 mm for each well of the 96-well plates will be measured. […] The % DMSO control is plotted vs compound concentration to generate sigmoid shaped curves. After three runs are complete, the raw data for all three runs is used for IC50 calculations.

[4] = test system: Plasmodium falciparum (strain D10); test: Plasmodium falciparum in vitro culture, infected erythrocytes; type: cell-based; details: tested at 29, 57, 143 nM or 143 nM only; FIG. 12
Experimental: In particular, the effect of carbazole compounds on the malaria parasite was tested by culturing Plasmodium falciparum (strain D10) in vitro in the presence or absence of test compounds.
In each experiment, 1000 erythrocytes were assessed microscopically to determine the number of infected cells.

[5] = test system: Caki1 human renal cell carcinoma cells; test: Caki1 renal cell carcinoma xenograft efficacy test; details: Day 24 (end of treatment); oral gavage 5 day on/2 day off; Example 7 30, Example 15 5, Example 13 25, Sunitinib 40 mg/kg
[6] = test system: Bloodstream T. brucei; test: T. brucei bloodstream form in vitro killing; type: cell-based, Trypanosoma brucei; details: Trypanosoma brucei, read-out: IC50 (concentration that killed 50% of the parasites); bloodstream stage, 48 hrs of culture
Experimental: Preliminary T. brucei inactivation experiments were performed in vitro. The life cycle of T. brucei involves a “procyclic” developmental stage in a tsetse fly, and a “bloodstream” form in humans. All studies were performed with the bloodstream stage of the parasite, because it is the disease-causing developmental stage.
Suramin, a conventional anti-HAT drug, was used as a positive control.
Bloodstream T. brucei was seeded (3×10^3 cells/mL) in 24-well (500 uL of the media per well) plate. […] Control cultures received equal volumes of DMSO.

[7] = Table 3, test compounds of the malaria experiment

pEC50 ([1]; Homo sapiens, 16 h, 16 h): 6.54
Structure (SMILES): CCN(CC)CCn1c2ccc(C(C)=O)cc2c2cc(C(C)=O)ccc21 [Compound 3a]

pEC50 ([1]; Homo sapiens, 16 h, 16 h): 6.31
Structure (SMILES): CC(=O)c1ccc2c(c1)c1cc(C(C)=O)ccc1n2CCCN(C)C [Compound 3b]

Structure (SMILES): CC(=O)c1ccc2c(c1)c1cc(C(C)=O)ccc1n2CCC1CCCN1C (stereo not drawn) [Compound 3e]
pEC50 ([1]; Homo sapiens, 16 h, 16 h): 6.11

pEC50 ([1]; Homo sapiens, 16 h, 16 h): 6.19
Structure (SMILES): CCC(=O)c1ccc2c(c1)c1cc(C(=O)CC)ccc1n2CCCN(C)C [Compound 7d]

pEC50 ([1]; Homo sapiens, 16 h, 16 h): 7.10
Structure (SMILES): CC(=O)c1ccc2c(c1)c1c3c(ccc1n2CCC1CCCN1C)C(=O)CC3 (stereo not drawn) [Compound 18c-1]
antibacterial effect [2]: antibacterial effect
antibacterial effect [3]: antibacterial effect

pEC50 ([1]; Homo sapiens, 16 h, 16 h): 7.00
Structure (SMILES): CC(=O)c1ccc2c(c1)c1c3c(ccc1n2CC[C@@H]1CCCN1C)C(=O)CC3 [Compound 18c-2]

pEC50 ([1]; Homo sapiens, 16 h, 16 h): 6.40
Structure (SMILES): CCN(CC)CCn1c2ccc(C(C)=O)cc2c2cc(C(C)=O)c(O)cc21 [Compound 19a]

pEC50 ([1]; Homo sapiens, 16 h, 16 h): 7.15
Structure (SMILES): CC(=O)c1cc2c3c4c(ccc3n(CCCN(C)C)c2cc1O)C(=O)N(C)C4 [Compound 19e]

pEC50 ([1]; 16 h): 6.28
Structure (SMILES): CCN(CC)CCn1c2ccccc2c2cc(C(C)=O)c(O)cc21 [Compound 22, 3-Acetyl-2-hydroxy-9-N,N-diethylaminoethylcarbazole]

Structure (SMILES): CN(C)CCCN(c1ccccc1)c1ccc2c(c1)CCC2=O [Compound 200, reference compound]
p53 activation, active or inactive carbazole [1]: inactive

Structure (SMILES): CCN(CC)CCn1c2ccc(C(C)=O)cc2c2cc(C(C)=O)ncc21 [Compound 300, reference compound]
p53 activation, active or inactive carbazole [1]: active

EC50, μM (p53 activation assay) [1, 7]: Inactive
Structure (SMILES): CCN(CC)CCn1c2ccccc2c2cc(C(C)=O)ncc21.Cl [Compound 400, reference compound]
anti-malarial activity, parasitemia reduction [4]: no parasitemia reduction

Structure (SMILES): CCCCCn1c2ccc(C(C)=O)cc2c2c3c(ccc21)C(=O)CC3 [Compound 500, reference compound]
EC50, μM (p53 activation assay) [1, 7]: Inactive
anti-malarial activity, parasitemia reduction [4]: no parasitemia reduction

Structure (SMILES): CC(=O)c1ccc2c(c1)c1cc(C(C)=O)ccc1n2CCC1CCCN1C (stereo not drawn) [Example 2, 1,1′-{9-[2-(1-Methylpyrrolidin-2-yl)ethyl]-9H-carbazole-3,6-diyl}diethanone]
EC50 ([1]; Homo sapiens, read-out: EC50, μM (p53 activation assay)): 0.64 µM
pEC50 ([1]; Homo sapiens, 16 h): 6.19
p53 activation, active or inactive carbazole [1]: active
anti-malarial activity, parasitemia reduction [4]: anti-malarial activity comparable to quinacrine

EC50 ([1]; Homo sapiens, 16 h, read-out: EC50 value (p53 activation, μM)): 0.07 µM
Structure (SMILES): CC(=O)c1cc2c3c4c(ccc3n(CCCN(C)C)c2cc1O)C(=O)CC4 [Example 4, 9-Acetyl-6-[3-(dimethylamino)propyl]-8-hydroxy-1,6-dihydrocyclopenta[c]carbazol-3(2H)-one]
antibacterial effect [2]: antibacterial effect
antibacterial effect [3]: antibacterial effect

Structure (SMILES): CCCNCCCn1c2ccc(C(C)=O)cc2c2c3c(ccc21)C(=O)CC3 [Example 6, 9-Acetyl-6-[3-(propylamino)propyl]-1,6-dihydrocyclopenta[c]carbazol-3(2H)-one]
pEC50 ([1]; 16 h): 6.62

Structure (SMILES): CC(=O)c1cc2c3cc(C(C)=O)c(O)cc3n(CCCN(C)C)c2cc1O [Example 12]
antibacterial effect [2]: antibacterial effect
antibacterial effect [3]: antibacterial effect

pEC50 ([1]; Homo sapiens, 16 h, 16 h): 7.30
Structure (SMILES): CCCNCCCn1c2ccc3c(c2c2c4c(ccc21)C(=O)CC4)CCC3=O [Example 14]

Structure (SMILES): CN(C)CCCn1c2ccc([N+](=O)[O-])cc2c2cc([N+](=O)[O-])ccc21 [Example 21]
pEC50 ([1]; 16 h): 6.08

Structure (SMILES): CCN(CC)CCCn1c2ccc([N+](=O)[O-])cc2c2cc([N+](=O)[O-])ccc21 [Example 23]
pEC50 ([1]; Homo sapiens, 16 h): 6.06

Structure (SMILES): O=[N+]([O-])c1ccc2c(c1)c1cc([N+](=O)[O-])ccc1n2CCCN1CCCC1 [Example 24]
pEC50 ([1]; Homo sapiens, 16 h): 6.11

Structure (SMILES): CNCCCn1c2ccc([N+](=O)[O-])cc2c2cc([N+](=O)[O-])ccc21 [Example 25]
pEC50 ([1]; Homo sapiens, 16 h): 6.06

pEC50 ([1]; Homo sapiens, 16 h, 16 h): 6.27
Structure (SMILES): CCN(CC)CCn1c2ccc(C(=O)NC)cc2c2cc(C(=O)NC)ccc21 [Example 27]

EC50 ([1]; Homo sapiens, Table 3, test compounds of the malaria experiment, read-out: EC50, μM (p53 activation assay)): ~5 µM
Structure (SMILES): CCN(CC)CCCC(C)Nc1c2ccc(Cl)cc2nc2ccc(OC)cc12 (stereo not drawn) [Quinacrine, reference compound]

Structure (SMILES): CCN(CC)CCNC(=O)c1c(C)[nH]c(/C=C2\C(=O)Nc3ccc(F)cc32)c1C [Sunitinib, reference compound]
tumor growth inhibition compared to the vehicle control [5]: 42%

Structure (SMILES): Cc1ccc(C(=O)Nc2ccc(S(=O)(=O)O)c3cc(S(=O)(=O)O)cc(S(=O)(=O)O)c23)cc1NC(=O)c1cccc(NC(=O)Nc2cccc(C(=O)Nc3cc(C(=O)Nc4ccc(S(=O)(=O)O)c5cc(S(=O)(=O)O)cc(S(=O)(=O)O)c45)ccc3C)c2)c1 [Suramin, reference compound]
pIC50 [6]: < 6.52
